The subject of test [1] is L. infantum axenic amastigote forms. The experiment in a line: Axenic amastigote forms assay. Type of test: cell-based, Leishmania infantum. The settings on record: for SI Axenic amastigote forms: IC50 macrophages/IC50 parasite form; for IC50: Leishmania infantum, 48 hours per method (72 h); for number of times that compound SI exceeds the reference drug SI, Axenic amastigote forms: in brackets, reference Glucantime.

Test [2] relates to L. braziliensis promastigote forms. The experiment in a line: Promastigote forms assay. In kind it is cell-based, Leishmania braziliensis. Particulars: for SI Promastigote forms: IC50 macrophages/IC50 parasite form; for IC50: Leishmania braziliensis, 72 h; for number of times that compound SI exceeds the reference drug SI, Promastigote forms: in brackets, reference Glucantime. The protocol:
(§1) The compounds obtained were dissolved in the culture medium, at dosages of 100, 50, 25, 10, and 1 μM. The effects of each compound against promastigote forms were tested at 72 hours using a Neubauer haemocytometric chamber. The antileishmanial effect is expressed as the IC50, that is, the concentration required to give 50% inhibition, calculated by linear regression analysis from the Kc values of the concentrations employed.

In test [3] the test system is L. infantum intracellular amastigote forms. Kind of test: Intracellular amastigote forms assay in J774.2 macrophages. Type of test: cell-based, Leishmania infantum. The settings on record: for SI Intracellular amastigote forms / number of times that compound SI exceeds the reference drug SI, Intracellular amastigote forms: L. infantum; for SI Intracellular amastigote forms: IC50 macrophages/IC50 parasite form; for number of times that compound SI exceeds the reference drug SI, Intracellular amastigote forms: in brackets, reference Glucantime; for IC50: Leishmania infantum, L. infantum in J774.2 macrophages, 72 h.

In test [4] the test system is L. infantum promastigote forms. Kind of test: Promastigote forms assay. The settings on record: for SI Promastigote forms: IC50 macrophages/IC50 parasite form; for IC50: Leishmania infantum, 72 h; for times SI exceeds the reference drug SI (all forms): extracellular and intracellular forms; for times SI exceeds the reference drug SI (all forms) / number of times that compound SI exceeds the reference drug SI, Promastigote forms: reference Glucantime; for number of times that compound SI exceeds the reference drug SI, Promastigote forms: in brackets. Type of test: cell-based, Leishmania infantum. The protocol:
as §1

A further test relates to J774.2 macrophages. The experiment in a line: Cytotoxicity test for macrophages (flow cytometry). Particulars: Mus musculus, J774.2, 72 h, J774.2 macrophages after 72 h of culture; read-out: Macrophage toxicity IC50. Type of test: cell-based, BALB/c rat.
The subject of test [5] is L. braziliensis axenic amastigote forms. The experiment in a line: Axenic amastigote forms assay. Type of test: cell-based, Leishmania braziliensis. The settings on record: for SI Axenic amastigote forms: IC50 macrophages/IC50 parasite form; for IC50: Leishmania braziliensis, 48 hours per method (72 h); for number of times that compound SI exceeds the reference drug SI, Axenic amastigote forms: in brackets, reference Glucantime.

Test [6] has as its system L. braziliensis intracellular amastigote forms. Kind of test: Intracellular amastigote forms assay in J774.2 macrophages. In kind it is cell-based, Leishmania braziliensis. Particulars: for SI Intracellular amastigote forms / number of times that compound SI exceeds the reference drug SI, Intracellular amastigote forms: L. braziliensis; for SI Intracellular amastigote forms: IC50 macrophages/IC50 parasite form; for number of times that compound SI exceeds the reference drug SI, Intracellular amastigote forms: in brackets, reference Glucantime; for IC50: Leishmania braziliensis, L. braziliensis in J774.2 macrophages, 72 h.

The subject of test [7] is epimastigote forms of Trypanosoma cruzi. Details: method as in PMID 21466157. Particulars: cited from earlier work.

A word on the IC50: it is the concentration needed to halve the response being measured.

In the case of `CC(=O)O[C@H]1[C@H](Oc2c(-c3ccc(O)cc3)oc3cc(O)cc(O)c3c2=O)O[C@H](CO)[C@@H](O)[C@@H]1O` [Compound 2], in test [1], the “SI Axenic amastigote forms” value is 8.2; the IC50 was 32.7 ± 5 µM; the “number of times that compound SI exceeds the reference drug SI, Axenic amastigote forms” value (“number … Axenic amastigote forms” for short) came to 14. In addition, in test [2], the “SI Promastigote forms” value is 10.6; half-maximal inhibition (IC50) required 25.1 ± 2.5 µM; the “number of times that compound SI exceeds the reference drug SI, Promastigote forms” value (shortened to “number … Promastigote forms”) was 18. Moreover, in test [3], the “SI Intracellular amastigote forms” value was 6.3; the “number of times that compound SI exceeds the reference drug SI, Intracellular amastigote forms” value (shortened to “number … Intracellular amastigote forms”) is on record as 13; the IC50 was 42.3 ± 3.9 µM. Besides, in test [4], the “SI Promastigote forms” value was determined as 7.8; inhibition was half-maximal at 34.1 ± 1.6 µM (IC50); the “times SI exceeds the reference drug SI (all forms)” value is less than 50 times; the “number … Promastigote forms” value was found to be 10. In addition, the IC50 in the test with J774.2 macrophages was found to be 267 ± 11 µM. Also, in test [5], the “SI Axenic amastigote forms” value came out at 9.6; the half-inhibitory concentration (IC50) was determined as 27.9 ± 2.7 µM; the “number … Axenic amastigote forms” value is on record as 19. For the same molecule, in test [6], the “SI Intracellular amastigote forms” value worked out at 8.8; the “number … Intracellular amastigote forms” value came to 18; the IC50 is 30.2 ± 3.8 µM. Further, the “IC50 compared with benznidazole” value in test [7] is “significantly lower IC50 values compared with benznidazole”.
For the molecule `CC(=O)OC[C@H]1O[C@@H](Oc2c(-c3ccc(OC(C)=O)cc3)oc3cc(OC(C)=O)cc(OC(C)=O)c3c2=O)[C@H](OC(C)=O)[C@@H](OC(C)=O)[C@@H]1OC(C)=O` [Compound 3], in test [1], the “SI Axenic amastigote forms” value is 12.0; half-maximal inhibition (IC50) required 29.2 ± 3.1 µM; the “number … Axenic amastigote forms” value came to 20. In test [2], the “SI Promastigote forms” value was determined as 12.3; the midpoint of inhibition, the IC50, lay at 28.4 ± 3 µM; the “number … Promastigote forms” value was found to be 21. Moreover, in test [3], the “SI Intracellular amastigote forms” value was 9.2; the “number … Intracellular amastigote forms” value was 18; the IC50 was 38.1 ± 1.6 µM. Moreover, in test [4], the “SI Promastigote forms” value is recorded as 8.7; half-maximal inhibition (IC50) required 40.4 ± 3.4 µM; the “times SI exceeds the reference drug SI (all forms)” value is recorded as less than 50 times; the “number … Promastigote forms” value was 11. For the same molecule, in the test with J774.2 macrophages, the IC50 amounted to 351 ± 26.8 µM. Further, in test [5], the “SI Axenic amastigote forms” value is 10.7; the IC50 is 32.9 ± 3 µM; the “number … Axenic amastigote forms” value worked out at 21. In test [6], the “SI Intracellular amastigote forms” value is 8.4; the “number … Intracellular amastigote forms” value is reported as 17; the IC50 came to 41.9 ± 4 µM. For the same molecule, the “IC50 compared with benznidazole” value in test [7] was “significantly lower IC50 values compared with benznidazole”.
